Laboratory results: ChEMBL document CHEMBL1157176, “Total syntheses of (+/-)-ovalicin, C4(S *)-isomer, and its C5-analogs and anti-trypanosomal activities” (Bioorg Med Chem, 2008)
Active and inactive are the calls of the source. The calls are words filed in the database; no cut-off is given here.

Key:
Trypanosoma brucei = test: Antitrypanosomal activity against Trypanosoma brucei 427 after 48 hrs by luciferase assay; type: functional, organism-based; conditions: Trypanosoma brucei, 427, 48 h
HL-60 = test: Antiproliferative activity against human HL60 cells; type: functional, cell-based

| IC50 (Trypanosoma brucei) | SMILES | Activity (HL-60) |
| --- | --- | --- |
| 0.28 µM | CO[C@@H]1[C@]2(CC[C@H](O[Si](C)(C)C(C)(C)C)[C@@]1(O)/C(C)=C/CC=C(C)C)CO2 (relative stereo) |  |
| 325 µM | O=C(O[C@H]1CC[C@]2(CO2)[C@H](O)[C@@H]1O)c1ccccc1 (relative stereo) |  |
| 0.72 µM | O=C(O[C@@H]1CC[C@]2(CO2)[C@@H](O)[C@H]1O)c1ccccc1 (relative stereo) |  |
| 47.3 µM | CO[C@H]1C(=O)[C@]2(CC[C@@H]1OC(=O)c1ccccc1)CO2 (relative stereo) |  |
|  | CO[C@@H]1C(=O)CC[C@]2(CO2)[C@]1(O)[C@@]1(C)O[C@@H]1CC=C(C)C (relative stereo) | Active |
| 41.5 µM | CO[C@@H]1C(=O)CC[C@]2(CO2)[C@]1(O)/C(C)=C/CC=C(C)C (relative stereo) |  |
| 0.4 µM | CO[C@@H]1[C@H](O[Si](C)(C)C(C)(C)C)CC[C@]2(CO2)[C@@]1(O)/C(C)=C/CC=C(C)C (relative stereo) |  |
| 4.2 µM | CO[C@@H]1[C@@H](OC(=O)c2ccccc2)CC[C@]2(CO2)[C@]1(O)/C(C)=C/CC=C(C)C (relative stereo) |  |
